Measured values taken from patent US9192667B2, “Method of treating cancer by administering CSF-1R antibodies and a TLR9 agonist” (Hoffmann-La Roche Inc., priority 2013, dated 2015).

Legend:
[1] = system: MC38 mouse CRC in vivo model; experiment: Tumor growth inhibition in subcutaneous syngeneic MC38 colon carcinoma model; conditions: antibody 30 mg/kg i.p. weekly, CpG ODN 1826 100 μg peritumoral 1×; for TGI (day 24): versus control antibody
Source text: Additionally to the assessment of median tumor volume after 2 weeks of treatment the progression of individual tumors in the study was followed until progression ≧700 mm3 (FIG. 1 (CpG is TLR9 agonist CpG ODN 1826) and Table 11)

[2] = SCID mouse; cited from earlier work
[3] = phase 1/1 I clinical study; cited from earlier work
lymphoma = conditions: phase 1/1 I clinical study; cited from earlier work

Substance: CpG ODN 1826
- Median time to progression TV > 700 mm3 [1]: 24 days
- TCR (day 24) [1]: 0.28
- TGI (day 24) [1]: 74%
- TGI (day 24) ([1]; listed as TLR9 agonist (CpG)): 73%

Substance: CpG-685: synthetic, 21-mer fully phosphorothioated CpG ODN 5′-tcgtcgacgtcgttcgttctc-3′ (SEQ ID NO: 93), SBI Biotech (DNA TCGTCGACGTCGTTCGTTCTC; DNA, all phosphorothioate, methylation of C not given here)
- antitumor effects [2]: showed antitumor effects

Substance: d(P-Thio)(TCGTCGTTTTGTCGTTTTGTCGTT)DNA [CpG-7909]
- tolerability [3]: well tolerated
- antilymphoma activity (lymphoma): antilymphoma activity
